US6528517B1, “Synthesis of quinobenzoxazine analogues with topoisomerase II and quadruplex interactions for use as antineoplastic agents” (Board of Regents, The University of Texas System, priority 1998, dated 2003)

Target: T1, Drosophila topo II (Drosophila melanogaster, UniProt P15348)
T1 construct: purchased Amersham
T1 sequence (P15348 1-1447): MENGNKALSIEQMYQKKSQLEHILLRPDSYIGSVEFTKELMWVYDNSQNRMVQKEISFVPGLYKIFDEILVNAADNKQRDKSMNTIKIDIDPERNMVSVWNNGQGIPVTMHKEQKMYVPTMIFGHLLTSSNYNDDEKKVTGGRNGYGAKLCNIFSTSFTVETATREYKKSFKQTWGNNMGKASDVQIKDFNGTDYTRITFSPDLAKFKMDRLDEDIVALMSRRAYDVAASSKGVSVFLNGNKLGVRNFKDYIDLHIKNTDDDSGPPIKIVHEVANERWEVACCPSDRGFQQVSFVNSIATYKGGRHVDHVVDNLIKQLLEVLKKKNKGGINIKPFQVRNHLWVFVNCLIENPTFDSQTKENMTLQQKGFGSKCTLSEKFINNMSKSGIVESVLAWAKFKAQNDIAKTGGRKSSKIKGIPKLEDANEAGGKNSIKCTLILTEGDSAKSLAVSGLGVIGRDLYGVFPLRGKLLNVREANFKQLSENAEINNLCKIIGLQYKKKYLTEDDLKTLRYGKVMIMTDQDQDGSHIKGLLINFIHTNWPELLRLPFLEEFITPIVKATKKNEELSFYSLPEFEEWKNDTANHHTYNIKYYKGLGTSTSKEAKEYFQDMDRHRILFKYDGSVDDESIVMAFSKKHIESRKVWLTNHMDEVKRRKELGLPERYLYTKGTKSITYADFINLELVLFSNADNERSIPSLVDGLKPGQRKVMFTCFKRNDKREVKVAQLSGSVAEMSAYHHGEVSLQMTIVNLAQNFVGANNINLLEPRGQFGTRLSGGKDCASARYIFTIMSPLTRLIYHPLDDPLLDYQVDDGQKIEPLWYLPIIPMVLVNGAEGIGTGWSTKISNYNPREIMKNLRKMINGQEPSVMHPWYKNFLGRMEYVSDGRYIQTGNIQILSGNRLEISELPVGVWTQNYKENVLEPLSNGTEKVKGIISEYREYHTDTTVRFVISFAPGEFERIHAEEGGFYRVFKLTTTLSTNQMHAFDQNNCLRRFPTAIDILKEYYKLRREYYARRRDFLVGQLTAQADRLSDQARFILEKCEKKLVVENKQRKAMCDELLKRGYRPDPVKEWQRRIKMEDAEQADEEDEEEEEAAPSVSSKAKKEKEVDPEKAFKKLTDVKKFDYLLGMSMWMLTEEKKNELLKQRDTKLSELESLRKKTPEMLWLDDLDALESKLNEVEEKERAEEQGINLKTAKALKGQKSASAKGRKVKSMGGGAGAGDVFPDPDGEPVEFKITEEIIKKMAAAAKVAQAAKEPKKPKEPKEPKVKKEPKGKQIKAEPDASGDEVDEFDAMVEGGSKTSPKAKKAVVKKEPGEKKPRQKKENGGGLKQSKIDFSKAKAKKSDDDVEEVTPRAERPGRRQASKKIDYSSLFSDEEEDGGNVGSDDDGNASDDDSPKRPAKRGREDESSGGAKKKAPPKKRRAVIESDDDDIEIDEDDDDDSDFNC
Test: Topo II cleavage reaction
Type: biochemical
Details: up to 10 μM
Method: FIGS. 5, A-B. Effect of A-62176 (I in FIG. 2) on DNA cleavage by topo II in the presence of ATP. (A) Autoradiogram of a 12% denaturing polyacrylamide gel showing topo II-mediated cleavage pattern in the presence of A-62176. The cleavage reaction was done in a reaction buffer containing 10 mM imidazole-HCl (pH 6.0), 10 mM MgCl2, 50 mM KCl, and 1 mM ATP, as described in the Materials and Methods section. Lanes 1-7 contain 20 units of Drosophila topo II. Lane 1 contains no drug. Lanes 2-7 contain 0.2, 0.5, 1, 2, 5 and 10 μM of A-62176, respectively. (B) Topo II cleavage products indicated by arrows in (A) were quantitated using a PhosphorImager and analyzed using ImageQuanNT software (Molecular Dynamics). The intensity of the topo II-mediated cleavage was determined from the volume of the bands [indicated by arrows in (A)] normalized by the total radioactivity in each lane.
5′^32P-labeled DNA was incubated with Drosophila topo II in 20 μl of a reaction buffer [10 mM imidazole-HCl (pH 6.0), 10 mM MgCl2, 50 mM KCl, and 1 mM ATP] at 30° C. for 10 min in the presence of various amounts of A-62176. Reactions were terminated by adding SDS to 1%, and topo II was removed by proteinase K digestion (100 μg/ml) at 42° C. for 1 hr followed by phenol/chloroform extraction and ethanol precipitation.

topo II-mediated cleavage: enhance
SMILES: N[C@H]1CCN(c2c(F)cc3c(=O)c(C(=O)O)cn4c3c2Oc2ccccc2-4)C1 [Compound A-62176, 1-(3-aminopyrrolidin-1-yl)-2-fluoro-4-oxo-4H-quino[2,3,4-i,j][1,4]benzoxazine-5-carboxylic acid, reference compound]
